Values of other authors as cited in US20130029422A1, “Composite Substrate for 3D Cell Culture” (priority 2011, published 2013).

Details: during culture of breast cancer cells

Substance: estrogen
- extraction from cell culture medium by PDMS-based cell culture articles: extract estrogen from cell culture medium
